Assay results reported in PMC7018972, “Novel and selective inactivators of Triosephosphate isomerase with anti-trematode activity” (Scientific Reports, 2020).

Experiments:
[1] = biological target: Fasciola hepatica TIM (FhTIM) (Fasciola hepatica, UniProt S4UI50); assay: Inhibition of recombinant FhTIM, coupled enzyme assay; format: biochemical; conditions: recombinant FhTIM, 1 h incubation with compound at 37 °C; read-out: IC50
In short: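 E. coli-expressed FhTIM preincubated with compound 1 h at 37 °C in 100 mM triethanolamine, 10 mM EDTA, pH 7.4, 10% DMSO. Aliquot diluted into coupled assay (1 mM glyceraldehyde-3-phosphate, 0.2 mM NADH, α-glycerol phosphate dehydrogenase, pH 7.4) with NADH decrease at 340 nm, 38 °C. Triplicate, two independent experiments.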

[2] = system: newly excysted juvenile (NEJ) F. hepatica; assay: In vitro NEJ treatment; format: cell-based, Fasciola hepatica; conditions: NEJ, incubation time 72 h
Method: F. hepatica metacercariae were acquired from DILAVE, MGAP, Uruguay. NEJ were obtained by in vitro excystement as previously described with minor modifications. Briefly, metacercariae were incubated with 1% sodium hypochlorite for 5 min at room temperature to remove the outer cyst wall and then washed exhaustively with PBS 200 U/mL Penicillin G sulfate, […] streptomycin sulfate, 500 ng/mL amphotericin B, 10 mM HEPES, counted and divided into groups of around 20 parasites that were transferred to 12 wells tissue culture plates. Parasites were maintained at 37 °C, 5% CO2 in modified Basch’s medium. At day 1, compounds were added at the indicated concentrations and 0.5% DMSO was added to control groups; each condition was tested in duplicate. NEJ behavior was monitored under a light microscope (Olympus BX41), every day each well was recorded for a minute in order to assess parasite motility and registered using the following score: 3- normally active; 2- reduced activity (sporadic movement); 1- immotile (dead)[48].

S. mansoni somules = S. mansoni somules phenotypic screen in vitro; format: cell-based, Schistosoma mansoni; conditions: for SOMULES SEVERITY SCORE: Table 2S, 10 uM
Source text: (§1) The NMRI isolate of S. mansoni was maintained by passage through Biomphalaria glabrata snails and 3–5 week-old, female Golden Syrian hamsters (Charles River, San Diego, CA) as intermediate and definite hosts, respectively. A dose of 600 infective larvae (cercariae) was used to infect hamsters. The acquisition, preparation and in vitro maintenance of S. mansoni post-infective larvae (schistosomula or somules) and adults have been already described[5],[50],[51]. Vertebrate animal maintenance and handling at the University of California San Diego Animal Care Facility were in accordance with protocols approved by the university’s Institutional Animal Care and Use Committee (IACUC).
Phenotypic screens with somules were performed as described[5],[50],[51]. Initially, 100 μL Basch medium, 100 U/ml penicillin, […] streptomycin, 4% heat-inactivated FBS (Corning Mediatech) and 1 μl compound in DMSO were added to clear, 96-well round-bottomed plates (Costar cat.# 3367). Then, 100 μL of the same medium containing 40–50 somules was added to mix the compound with somules (final concentration of DMSO was 0.5%). Assay plates were placed into plastic boxes humidified with wet tissue and then incubated at 37 °C in a 5% CO2 environment. Somules phenotypes were recorded every 24 h up to 72 h using an inverted microscope (Zeiss Axiovert 40 C).
(§2) Schistosome phenotypic responses were recorded employing a series of ‘descriptors,’ such as rounding, degeneration, overactivity, loss of translucency and changes in motility, as described previously[5],[50],[51],[53]. To allow for comparisons of compound activity, each descriptor was awarded a value of 1 and these were added up to a maximum ‘severity score’ of 4. Evidence of degeneracy or death was awarded the maximum score of 4. Scores were averaged across duplicate wells for each compound (see details in the supporting information).

S. mansoni adults = S. mansoni adults phenotypic screen ex vivo; format: cell-based, Schistosoma mansoni; conditions: Table 2S, 5 uM
Source text: as §1
Phenotypic screens with 42-day-old, adult parasites were performed in 24-well plates (Costar cat.# 3526) containing the above medium and approximately five adult males and two females per well. Compound was added in a volume of up to 1 μL DMSO at a concentration of 5 µM (0.05% DMSO final). Assay plates were incubated at 37 °C in a 5% CO2 environment. Parasite phenotypes were recorded at 4, 8 and 24 h using a Zeiss Axiovert 40 C.
as §2

[3] = system: murine macrophages and bovine sperm; assay: Non-specific toxicity against mammalian cells; format: cell-based
Method: As a proof of concept, we tested the best FhTIM inactivators against F. hepatica and S. mansoni parasites. Also, we use compound 191 as a non-inhibitor which has a closely related structure to that of compound 187. Some compounds were able to kill 100% of the newly excysted juvenile (NEJ) F. hepatica within 4 to 48 h (Table 2 and Fig. 2). […] In parallel, these compounds were assayed to characterize their non-specific toxicity against murine macrophages and bovine sperm. Both models are recommended by FDA as an in vitro prediction of toxicology.
J774.1 murine macrophage cells (ATCC, USA) were grown in DMEM culture milieu containing 4 mM glutamine and supplemented with 10% FCS[20]. The cells were seeded in a 96-well plate (5×10^4 cells in 200 µL culture medium) and incubated at 37 °C in a 5% CO2 atmosphere for 48 h, to allow cell adhesion prior to drug testing. Afterward, cells were exposed for 48 h to the compounds (25–400 µM) or the vehicle for control (0.4% DMSO), and additional controls (cells in medium) were used in each test. Cell viability was then assessed by measuring the mitochondria-dependent reduction of MTT (3-(4,5-dimethylthiazol-2-yl)-2,5-diphenyltetrazolium bromide) to formazan. For this purpose, MTT in sterile PBS (0.2% glucose), pH 7.4, was added to the macrophages to achieve a final concentration of 0.1 mg/mL, and the cells were incubated at 37 °C for 3 h. After removing the medium, formazan crystals were dissolved in 180 µL of DMSO and 20 µL of MTT buffer (0.1 M glycine, 0.1 M NaCl, 0.5 mM EDTA, pH 10.5), and the absorbance at 560 nm was measured. The IC50 was defined as the drug concentration at which 50% of the cells were viable, relative to the control (no drug added), and was determined by analysis using OriginLab8.5® sigmoidal regression (% of viable cells vs. the logarithm of the compound concentration). Tests were performed in triplicate.
Semen samples were obtained from a healthy fertile Hereford bull and kept frozen in 0.5 mL straws (extended in Andromed, Minitube, Germany[47]) under liquid nitrogen until use. The semen used belonged to a single freezing batch that was obtained during a regular collection schedule with an artificial vagina. Samples from three straws were thawed and a sperm pool was prepared in PBS at a concentration of 40 million spermatozoa per mL, then 50 μL of this sperm suspension was carefully mixed with 50 μL of compounds diluted to 100, 50, 25, 12.5 and 6.25 μM or with 1% DMSO in control experiments. Each condition was assayed by duplicate in 96-well plates and controls were assayed by triplicate. Plates were incubated at 37 °C for 1 h with moderate shaking. The motility analysis was carried out using a CASA (Computer Assisted Semen Analyzer) system Androvision (Minitube, Tiefenbach, Germany) with an Olympus BX 41 microscope (Olympus, Japan) equipped with a warm-stage at 37 °C. Each sample (10 μL) was placed onto a Makler Counting Chamber (depth 10 μm, Sefi-Medical Instruments, Israel) and the following parameters were evaluated: percentage of total motile spermatozoa (motility >5 μm/s) and velocity curved line (VCL, >24 μm/s). At least 400 spermatozoa were analyzed from each sample from at least four microscope fields.

[4] = system: murine macrophages and human peripheral blood mononuclear cells; design: method as in PMID 22536349; conditions: at 100 µM; cited from earlier work

Chain of Fasciola hepatica TIM (FhTIM) (S4UI50 entry or part of it): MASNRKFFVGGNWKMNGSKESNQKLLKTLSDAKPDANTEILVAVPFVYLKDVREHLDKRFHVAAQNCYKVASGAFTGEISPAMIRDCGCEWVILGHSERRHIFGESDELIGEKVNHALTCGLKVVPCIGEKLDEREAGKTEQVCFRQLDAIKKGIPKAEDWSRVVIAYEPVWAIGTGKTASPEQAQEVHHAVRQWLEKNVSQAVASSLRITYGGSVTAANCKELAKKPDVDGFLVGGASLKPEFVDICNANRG

C=CCn1c(-c2ccc(Cl)cc2)csc1=NN=CC=Cc1ccc([N+](=O)[O-])s1 [Compound 144]
IC50 [1]: 60 ± 2 µM | IC50 [2]: 25 ± 5 µM | S. mansoni somules severity score (S. mansoni somules; Table 2, 72 h, score 0 to maximum 4): 4 (72 h) | SOMULES SEVERITY SCORE (S. mansoni somules; 24 h): 1 | SOMULES SEVERITY SCORE (S. mansoni somules; 48 h): 2 | SOMULES SEVERITY SCORE (S. mansoni somules; 3d): 4 | ADULTS SEVERITY SCORE (S. mansoni adults; 4 h): 0 | ADULTS SEVERITY SCORE (S. mansoni adults; 8 h): 0 | ADULTS SEVERITY SCORE (S. mansoni adults; 24 h): 0 | toxicity to mammalian cells in words ([3]; herein): non-toxic | Toxicity mammalian cells ([3]; selectivity index parasite vs. mammalian cells, fixed doses 25 and 100 µM): NT (when the IC50 vs. the parasite was at least 10 times less than the IC50 vs. the mammalian cells, we considered these compounds as non-toxic (NT)) | toxicity in words [4]: non-toxic
